Assay results published in US20030087906A1, “NITROGEN SUBSTITUTED BIARYL PURINE DERIVATIVES AS POTENT ANTIPROLIFERATIVE AGENTS” (priority 2001, published 2003).
Values joined by “and” are separate entries in the source; they are usually repeats but may differ in a detail not shown here. Identical values can stand only once.

How the values were obtained:
KM12 = assay: NCI 60-cell line growth inhibition assay; format: cell-based; details: Homo sapiens
SK-MEL-5 = assay: NCI 60-cell line growth inhibition assay; format: cell-based; details: Homo sapiens
SN12C = assay: NCI 60-cell line growth inhibition assay; format: cell-based; details: Homo sapiens
BT-549 = assay: NCI 60-cell line growth inhibition assay; format: cell-based; details: Homo sapiens
CyclinB/cdk1 = target: T1, CyclinB/cdk1 (Homo sapiens, UniProt P06493); assay: CyclinB/cdk1 protein kinase assay (histone H1 phosphorylation); format: biochemical; details: complex immunopurified from HeLa cells; 15 μM ATP; replicate experiments
T1 construct: Monoclonal antibody against cyclinB (GNS1) is added to the supernatant; endogenous in cells
Description: HeLa cells are blocked at the G1/S border by culturing in the presence of 2 mM thymidine for 20 h. The cells are then rinsed 3×in phosphate buffered saline and resuspended in regular medium. After 4 h of culture, the mitotic blocker, nocodazole is added to a final concentration of 75 ng/ml. […] The lysate is then clarified by centrifugation at 10,000×g for 10 min. The supernatant is collected and diluted 1:5 with Lysis Buffer. Monoclonal antibody against cyclinB (GNS1) is added to the supernatant to a final concentration of 5 μg/ml and shaken at 4° C. for 2 h. The immune complexes are then collected by the addition of 200 μl of protein agarose beads for 1 h. The beads are washed 4×in lysis buffer and 1×in kinase assay buffer.
Duplicate assays were performed at each concentration.

OVCAR-8 = assay: NCI 60-cell line growth inhibition assay; format: cell-based; details: Homo sapiens
UACC-257 = assay: NCI 60-cell line growth inhibition assay; format: cell-based; details: Homo sapiens
MALME-3M = assay: NCI 60-cell line growth inhibition assay; format: cell-based; details: Homo sapiens
K-562 = assay: NCI 60-cell line growth inhibition assay; format: cell-based; details: Homo sapiens, K562
CyclinA/cdk2 = CyclinA/cdk2 (Homo sapiens, UniProt P24941); assay: CyclinA/cdk2 protein kinase assay (histone H1 phosphorylation); details: IC50 CyclinA/cdk2, complex immunopurified from HeLa cells; 15 μM ATP; replicate experiments
CAKI-1 = assay: NCI 60-cell line growth inhibition assay; format: cell-based; details: Homo sapiens
A549/ATCC = assay: NCI 60-cell line growth inhibition assay; format: cell-based; details: Homo sapiens
SK-OV-3 = assay: NCI 60-cell line growth inhibition assay; format: cell-based; details: Homo sapiens
CyclinE/cdk2 = CyclinE/cdk2 (Homo sapiens, UniProt P24941); assay: CyclinE/cdk2 protein kinase assay (histone H1 phosphorylation); details: IC50 CyclinE/cdk2, complex immunopurified from HeLa cells; 15 μM ATP; replicate experiments
M14 = assay: NCI 60-cell line growth inhibition assay; format: cell-based; details: Homo sapiens
[1] = MTD (NCI in vivo evaluation, Table 8); details: mouse
U251 = assay: NCI 60-cell line growth inhibition assay; format: cell-based; details: Homo sapiens, U-251
IGROV1 = assay: NCI 60-cell line growth inhibition assay; format: cell-based; details: Homo sapiens, IGROV-1
HCT-116 = assay: NCI 60-cell line growth inhibition assay; format: cell-based; details: Homo sapiens
OVCAR-5 = assay: NCI 60-cell line growth inhibition assay; format: cell-based; details: Homo sapiens
HCT-15 = assay: NCI 60-cell line growth inhibition assay; format: cell-based; details: Homo sapiens
ACHN = assay: NCI 60-cell line growth inhibition assay; format: cell-based; details: Homo sapiens
SF-268 = assay: NCI 60-cell line growth inhibition assay; format: cell-based; details: Homo sapiens
MDA-MB-435 = assay: NCI 60-cell line growth inhibition assay; format: cell-based; details: Homo sapiens
SR = assay: NCI 60-cell line growth inhibition assay; format: cell-based; details: Homo sapiens
HeLa S-3 cells = assay: Inhibition of cell growth of HeLa cells (SRB); format: cell-based, human; details: Homo sapiens, HeLa S3, 48 h, 2 days of treatment, replicate experiments
[2] = system: 60-human transformed cell lines; assay: NCI 60-cell line growth inhibition assay (whole panel); format: cell-based; details: range over 60 cell lines
[3] = A549/ATCC (Non-Small Cell Lung)

T1 sequence (P06493 whole entry): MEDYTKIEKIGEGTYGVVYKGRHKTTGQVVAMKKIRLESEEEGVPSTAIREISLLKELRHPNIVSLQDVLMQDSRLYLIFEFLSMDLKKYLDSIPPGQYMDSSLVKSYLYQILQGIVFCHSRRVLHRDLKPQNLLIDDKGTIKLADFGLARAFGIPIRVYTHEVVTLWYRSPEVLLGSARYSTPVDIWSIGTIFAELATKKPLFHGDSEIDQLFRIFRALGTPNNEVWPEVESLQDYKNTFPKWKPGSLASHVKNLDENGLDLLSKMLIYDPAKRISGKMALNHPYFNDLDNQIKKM
T1 sequence (P14635 whole entry partner): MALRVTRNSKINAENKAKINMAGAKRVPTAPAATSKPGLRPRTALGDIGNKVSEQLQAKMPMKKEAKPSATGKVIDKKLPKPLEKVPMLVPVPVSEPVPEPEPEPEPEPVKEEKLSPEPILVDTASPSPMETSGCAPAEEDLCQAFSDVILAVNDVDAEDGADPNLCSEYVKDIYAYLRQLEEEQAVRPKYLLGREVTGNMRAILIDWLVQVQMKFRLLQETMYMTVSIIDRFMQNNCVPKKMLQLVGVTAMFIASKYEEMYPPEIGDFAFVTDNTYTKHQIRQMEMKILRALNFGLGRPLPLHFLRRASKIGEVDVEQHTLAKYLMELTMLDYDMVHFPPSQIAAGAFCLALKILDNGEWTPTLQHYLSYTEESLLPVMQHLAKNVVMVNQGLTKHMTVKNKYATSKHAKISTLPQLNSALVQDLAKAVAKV

CC(C)n1cnc2c(NCc3ccc(-c4ccccn4)cc3)nc(N[C@H]3CC[C@H](N)CC3)nc21 [Compound 78]
GI50 (KM12; KM12 (Colon)): < 0.01 µM
GI50 (SK-MEL-5; SK-MEL-5 (Melanoma)): 0.1 µM
GI50 (SN12C; SN12C (Renal)): < 0.01 µM
GI50 (BT-549; BT-549 (Breast)): 0.04 µM
IC50 (CyclinB/cdk1): 0.8 µM
GI50 (OVCAR-8; OVCAR-8 (Ovarian)): 0.02 µM
GI50 (UACC-257; UACC-257 (Melanoma)): 0.02 µM
GI50 (MALME-3M; MALME-3M (Melanoma)): 0.01 µM
GI50 (K-562; K-562 (Leukemia)): 0.02 µM
IC50 (CyclinA/cdk2): 0.9 µM and 0.7 µM
GI50 (CAKI-1; CAKI-1 (Renal)): 0.79 µM
GI50 (A549/ATCC; [3]): < 0.01 µM
GI50 (SK-OV-3; SK-OV-3 (Ovarian)): 0.06 µM
IC50 (CyclinE/cdk2): 0.6 µM and 0.3 µM and 0.2 µM
GI50 (M14; M14 (Melanoma)): < 0.01 µM
MTD [1]: 6.3 mg/kg
GI50 (U251; U251 (CNS)): 0.02 µM
GI50 (IGROV1; IGROV1 (Ovarian)): < 0.01 µM
GI50 (HCT-116; HCT-116 (Colon)): 0.03 µM
GI50 (OVCAR-5; OVCAR-5 (Ovarian)): < 0.01 µM
GI50 (HCT-15; HCT-15 (Colon)): 1.48 µM
GI50 (ACHN; ACHN (Renal)): 0.32 µM

CC(=O)N[C@H]1CC[C@H](Nc2nc(NCc3ccc(-c4ccccn4)cc3)c3ncn(C(C)C)c3n2)CC1 [Compound 79]
GI50 (KM12; KM12 (Colon)): < 0.01 µM
GI50 (SK-MEL-5; SK-MEL-5 (Melanoma)): < 0.01 µM
GI50 (SF-268; SF-268 (CNS)): < 0.01 µM
GI50 (SN12C; SN12C (Renal)): < 0.01 µM
GI50 (BT-549; BT-549 (Breast)): < 0.01 µM
GI50 (MDA-MB-435; MDA-MB-435 (Breast)): < 0.01 µM
IC50 (CyclinB/cdk1): 3 µM
GI50 (OVCAR-8; OVCAR-8 (Ovarian)): < 0.01 µM
GI50 (UACC-257; UACC-257 (Melanoma)): < 0.01 µM
GI50 (MALME-3M; MALME-3M (Melanoma)): < 0.01 µM
GI50 (K-562; K-562 (Leukemia)): < 0.01 µM
IC50 (CyclinA/cdk2): 0.5 µM and 1 µM
GI50 (CAKI-1; CAKI-1 (Renal)): < 0.01 µM
GI50 (A549/ATCC; [3]): < 0.01 µM
GI50 (SK-OV-3; SK-OV-3 (Ovarian)): < 0.01 µM
GI50 (SR; SR (Leukemia)): < 0.01 µM
GI50 (M14; M14 (Melanoma)): < 0.01 µM
MTD [1]: 6.3 mg/kg
GI50 (U251; U251 (CNS)): < 0.01 µM
GI50 (IGROV1; IGROV1 (Ovarian)): < 0.01 µM
GI50 (HCT-116; HCT-116 (Colon)): < 0.01 µM
GI50 (OVCAR-5; OVCAR-5 (Ovarian)): < 0.01 µM
GI50 (HCT-15; HCT-15 (Colon)): < 0.01 µM
GI50 (ACHN; ACHN (Renal)): < 0.01 µM

CC[C@H](CO)Nc1nc(NCc2ccc(-c3ccccn3)cc2)c2ncn(C(C)C)c2n1 [Compound 17]
GI50 (KM12; Colon, KM12): 0.03 µM
GI50 (SK-MEL-5; Melanoma, SK-MEL-5): 0.32 µM
GI50 (SF-268; CNS, SF-268): 0.04 µM
GI50 (SN12C; Renal, SN12C): 0.56 µM
GI50 (BT-549; Breast, BT-549): 0.4 µM
GI50 (MDA-MB-435; Breast, MDA-MB-435): 0.2 µM
GI50 (OVCAR-8; Ovarian, OVCAR-8): 0.13 µM
GI50 (UACC-257; Melanoma, UACC-257): 0.2 µM
GI50 (MALME-3M; Melanoma, MALME-3M): 19.9 µM
GI50 (K-562; Leukemia, K-562): 0.16 µM
GI50 (CAKI-1; Renal, CAKI-1): 0.13 µM
GI50 (A549/ATCC; Non-Small Cell Lung, A549/ATCC): 0.03 µM
GI50 (SK-OV-3; Ovarian, SK-OV-3): 0.4 µM
GI50 (SR; Leukemia, SR): 0.5 µM
GI50 (M14; Melanoma, M14): 0.03 µM
MTD [1]: 100 mg/kg
GI50 (U251; CNS, U251): 0.4 µM
GI50 (IGROV1; Ovarian, IGROV1): 0.2 µM
GI50 (HCT-116; Colon, HCT-116): 0.16 µM
GI50 (OVCAR-5; Ovarian, OVCAR-5): 0.26 µM
GI50 (HCT-15; Colon, HCT-15): 0.04 µM
GI50 (ACHN; Renal, ACHN): 0.4 µM

Cn1cnc2c(NCc3ccccc3)nc(NCCO)nc21 [Olomoucine, reference compound]
GI50 (KM12; KM12 (Colon)): 40 µM
GI50 (HeLa S-3 cells): 75 µM
GI50 (SK-MEL-5; SK-MEL-5 (Melanoma)): 40 µM
GI50 (SF-268; SF-268 (CNS)): 50 µM
GI50 (SN12C; SN12C (Renal)): 100 µM
GI50 (BT-549; BT-549 (Breast)): 79 µM
GI50 (MDA-MB-435; MDA-MB-435 (Breast)): 63 µM
GI50 (OVCAR-8; OVCAR-8 (Ovarian)): 63 µM
GI50 (UACC-257; UACC-257 (Melanoma)): 79 µM
GI50 (MALME-3M; MALME-3M (Melanoma)): 100 µM
GI50 (K-562; K-562 (Leukemia)): 100 µM
GI50 (CAKI-1; CAKI-1 (Renal)): 32 µM
GI50 (A549/ATCC; [3]): 50 µM
GI50 [2]: 20 to 100 µM
GI50 (SK-OV-3; SK-OV-3 (Ovarian)): 100 µM
GI50 (SR; SR (Leukemia)): 25 µM
GI50 (M14; M14 (Melanoma)): 100 µM
GI50 (U251; U251 (CNS)): 50 µM
GI50 (IGROV1; IGROV1 (Ovarian)): 40 µM
GI50 (HCT-116; HCT-116 (Colon)): 40 µM
GI50 (OVCAR-5; OVCAR-5 (Ovarian)): 40 µM
GI50 (HCT-15; HCT-15 (Colon)): 40 µM
GI50 (ACHN; ACHN (Renal)): 25 µM
